Results published in ChEMBL document CHEMBL4507284, “Data for DCP probe BI-1230” (2021).

Tests used:
[1] = system: Tyrosine-protein kinase ABL1 (Homo sapiens), P00519 [E255K]; details: Compound concentration 1000.0 nM
[2] = target: Activin receptor type-1-like (Homo sapiens) (UniProt P37023); details: Compound concentration 1000.0 nM
[3] = target: Atypical kinase COQ8B, mitochondrial (Homo sapiens) (UniProt Q96D53); details: Compound concentration 1000.0 nM
[4] = target: RAC-beta serine/threonine-protein kinase (Homo sapiens) (UniProt P31751); details: Compound concentration 1000.0 nM
[5] = target: Aurora kinase B (Homo sapiens) (UniProt Q96GD4); details: Compound concentration 1000.0 nM
Chain of Aurora kinase B (Homo sapiens) (Q96GD4 whole entry): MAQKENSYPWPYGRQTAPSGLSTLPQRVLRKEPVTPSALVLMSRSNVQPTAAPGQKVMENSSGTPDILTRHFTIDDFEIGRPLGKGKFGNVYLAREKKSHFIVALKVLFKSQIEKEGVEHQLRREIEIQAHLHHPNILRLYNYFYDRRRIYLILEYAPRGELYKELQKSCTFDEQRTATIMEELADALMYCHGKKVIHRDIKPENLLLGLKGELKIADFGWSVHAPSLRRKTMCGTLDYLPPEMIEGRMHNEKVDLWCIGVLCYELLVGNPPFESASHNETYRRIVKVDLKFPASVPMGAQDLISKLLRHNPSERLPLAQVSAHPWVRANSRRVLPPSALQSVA

[6] = target: BMP-2-inducible protein kinase (Homo sapiens) (UniProt Q9NSY1); details: Compound concentration 1000.0 nM
[7] = target: Bone morphogenetic protein receptor type-1B (Homo sapiens) (UniProt O00238); details: Compound concentration 1000.0 nM
[8] = target: Calcium/calmodulin-dependent protein kinase type II subunit delta (Homo sapiens) (UniProt Q13557); details: Compound concentration 1000.0 nM
[9] = target: Cyclin-dependent kinase-like 2 (Homo sapiens) (UniProt Q92772); details: Compound concentration 1000.0 nM
[10] = target: Dual specificity protein kinase CLK4 (Homo sapiens) (UniProt Q9HAZ1); details: Compound concentration 1000.0 nM
[11] = target: Epidermal growth factor receptor (Homo sapiens) (UniProt P00533); details: Compound concentration 1000.0 nM
[12] = system: Epidermal growth factor receptor (Homo sapiens), P00533 [UNDEFINED MUTATION]; details: Compound concentration 1000.0 nM
[13] = target: Eukaryotic translation initiation factor 2-alpha kinase 1 (Homo sapiens) (UniProt Q9BQI3); details: Compound concentration 1000.0 nM
[14] = target: Ephrin type-B receptor 3 (Homo sapiens) (UniProt P54753); details: Compound concentration 1000.0 nM
[15] = target: Mitogen-activated protein kinase 1 (Homo sapiens) (UniProt P28482); details: Compound concentration 1000.0 nM
[16] = system: Receptor-type tyrosine-protein kinase FLT3 (Homo sapiens), P36888 [UNDEFINED MUTATION]; details: Compound concentration 1000.0 nM
[17] = target: Cyclin-G-associated kinase (Homo sapiens) (UniProt O14976); details: Compound concentration 1000.0 nM
[18] = target: Serine/threonine-protein kinase haspin (Homo sapiens) (UniProt Q8TF76); details: Compound concentration 1000.0 nM
[19] = target: Tyrosine-protein kinase HCK (Homo sapiens) (UniProt P08631); details: Compound concentration 1000.0 nM
[20] = target: Tyrosine-protein kinase JAK1 (Homo sapiens) (UniProt P23458); details: Compound concentration 1000.0 nM
[21] = system: Mast/stem cell growth factor receptor Kit (Homo sapiens), P10721 [V559D]; details: Compound concentration 1000.0 nM
[22] = target: Mitogen-activated protein kinase kinase kinase 2 (Homo sapiens) (UniProt Q9Y2U5); details: Compound concentration 1000.0 nM
[23] = target: Dual specificity mitogen-activated protein kinase kinase 3 (Homo sapiens) (UniProt P46734); details: Compound concentration 1000.0 nM
[24] = target: Misshapen-like kinase 1 (Homo sapiens) (UniProt Q8N4C8); details: Compound concentration 1000.0 nM
[25] = target: Serine/threonine-protein kinase 4 (Homo sapiens) (UniProt Q13043); details: Compound concentration 1000.0 nM
Chain of Serine/threonine-protein kinase 4 (Homo sapiens) (Q13043 whole entry): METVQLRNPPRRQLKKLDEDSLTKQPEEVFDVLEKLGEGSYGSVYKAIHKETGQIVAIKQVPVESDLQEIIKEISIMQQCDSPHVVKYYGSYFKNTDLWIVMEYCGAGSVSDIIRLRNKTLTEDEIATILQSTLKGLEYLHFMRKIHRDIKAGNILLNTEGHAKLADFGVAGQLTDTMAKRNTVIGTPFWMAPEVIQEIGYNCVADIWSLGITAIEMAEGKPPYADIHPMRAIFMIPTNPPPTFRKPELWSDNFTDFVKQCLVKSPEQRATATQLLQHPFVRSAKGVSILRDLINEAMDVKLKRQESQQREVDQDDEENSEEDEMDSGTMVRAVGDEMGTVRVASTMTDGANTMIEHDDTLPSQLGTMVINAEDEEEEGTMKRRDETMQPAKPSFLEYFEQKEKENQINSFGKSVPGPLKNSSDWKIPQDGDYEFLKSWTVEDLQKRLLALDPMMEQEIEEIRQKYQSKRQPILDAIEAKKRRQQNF

[26] = target: Serine/threonine-protein kinase Nek6 (Homo sapiens) (UniProt Q9HC98); details: Compound concentration 1000.0 nM
Chain of Serine/threonine-protein kinase Nek6 (Homo sapiens) (Q9HC98 whole entry): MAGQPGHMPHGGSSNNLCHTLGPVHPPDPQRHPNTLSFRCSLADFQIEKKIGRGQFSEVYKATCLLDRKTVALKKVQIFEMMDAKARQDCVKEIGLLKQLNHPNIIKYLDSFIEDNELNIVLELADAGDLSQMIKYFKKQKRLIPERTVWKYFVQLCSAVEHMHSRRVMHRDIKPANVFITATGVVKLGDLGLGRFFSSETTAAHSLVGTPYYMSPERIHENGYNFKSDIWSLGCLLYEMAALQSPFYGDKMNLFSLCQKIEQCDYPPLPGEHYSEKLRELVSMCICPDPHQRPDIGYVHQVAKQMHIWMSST

[27] = target: Serine/threonine-protein kinase Nek9 (Homo sapiens) (UniProt Q8TD19); details: Compound concentration 1000.0 nM
[28] = target: Mitogen-activated protein kinase 14 (Homo sapiens) (UniProt Q16539); details: Compound concentration 1000.0 nM
[29] = target: Cyclin-dependent kinase 17 (Homo sapiens) (UniProt Q00537); details: Compound concentration 1000.0 nM
[30] = target: 3-phosphoinositide-dependent protein kinase 1 (Homo sapiens) (UniProt O15530); details: Compound concentration 1000.0 nM
Chain of 3-phosphoinositide-dependent protein kinase 1 (Homo sapiens) (O15530 whole entry, canonical isoform): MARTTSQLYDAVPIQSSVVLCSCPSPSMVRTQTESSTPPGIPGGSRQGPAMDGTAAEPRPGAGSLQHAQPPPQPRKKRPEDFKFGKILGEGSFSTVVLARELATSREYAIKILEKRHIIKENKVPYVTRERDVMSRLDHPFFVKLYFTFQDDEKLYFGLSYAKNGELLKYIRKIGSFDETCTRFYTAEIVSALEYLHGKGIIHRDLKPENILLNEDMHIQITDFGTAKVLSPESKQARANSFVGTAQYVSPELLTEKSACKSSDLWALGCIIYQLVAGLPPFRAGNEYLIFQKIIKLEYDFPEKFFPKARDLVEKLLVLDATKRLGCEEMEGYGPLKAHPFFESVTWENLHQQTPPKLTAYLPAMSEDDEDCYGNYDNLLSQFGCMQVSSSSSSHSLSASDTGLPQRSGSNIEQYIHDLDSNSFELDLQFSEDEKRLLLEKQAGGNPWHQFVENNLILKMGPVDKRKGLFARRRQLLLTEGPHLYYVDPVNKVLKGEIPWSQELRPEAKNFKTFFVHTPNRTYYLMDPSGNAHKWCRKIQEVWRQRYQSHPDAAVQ

[31] = system: Phosphatidylinositol 4,5-bisphosphate 3-kinase catalytic subunit alpha isoform (Homo sapiens), P42336 [M1043I]; details: Compound concentration 1000.0 nM
Chain of Phosphatidylinositol 4,5-bisphosphate 3-kinase catalytic subunit alpha isoform (Homo sapiens), P42336 [M1043I] (P42336 whole entry M1043I, canonical isoform): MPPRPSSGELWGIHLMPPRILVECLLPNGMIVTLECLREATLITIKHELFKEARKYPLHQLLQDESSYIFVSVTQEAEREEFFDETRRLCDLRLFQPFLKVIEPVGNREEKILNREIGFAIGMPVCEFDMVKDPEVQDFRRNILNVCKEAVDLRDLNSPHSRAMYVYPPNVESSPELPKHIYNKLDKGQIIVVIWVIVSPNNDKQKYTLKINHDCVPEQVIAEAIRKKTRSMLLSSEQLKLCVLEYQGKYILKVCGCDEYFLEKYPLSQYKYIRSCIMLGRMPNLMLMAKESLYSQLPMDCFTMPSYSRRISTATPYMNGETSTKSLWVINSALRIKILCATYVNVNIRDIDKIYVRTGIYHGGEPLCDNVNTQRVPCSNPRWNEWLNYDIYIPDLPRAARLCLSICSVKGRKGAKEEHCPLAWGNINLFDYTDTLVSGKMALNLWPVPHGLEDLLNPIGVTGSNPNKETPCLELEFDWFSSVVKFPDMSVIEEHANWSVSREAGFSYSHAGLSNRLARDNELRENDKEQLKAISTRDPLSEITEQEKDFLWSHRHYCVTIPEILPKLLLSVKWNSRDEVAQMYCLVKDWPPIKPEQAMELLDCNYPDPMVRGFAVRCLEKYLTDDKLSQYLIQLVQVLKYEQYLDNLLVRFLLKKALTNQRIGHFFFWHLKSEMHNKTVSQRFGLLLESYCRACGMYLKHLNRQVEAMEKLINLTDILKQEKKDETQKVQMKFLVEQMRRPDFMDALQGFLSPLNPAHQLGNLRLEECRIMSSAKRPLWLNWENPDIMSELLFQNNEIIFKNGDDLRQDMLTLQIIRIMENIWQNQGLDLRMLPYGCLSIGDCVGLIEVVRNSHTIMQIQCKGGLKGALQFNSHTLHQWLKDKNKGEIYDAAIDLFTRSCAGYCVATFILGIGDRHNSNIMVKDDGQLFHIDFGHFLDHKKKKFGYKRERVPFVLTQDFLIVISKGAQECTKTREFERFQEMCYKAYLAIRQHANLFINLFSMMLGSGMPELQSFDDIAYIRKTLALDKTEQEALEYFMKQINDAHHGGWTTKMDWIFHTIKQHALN

[32] = target: 1-phosphatidylinositol 3-phosphate 5-kinase (Homo sapiens) (UniProt Q9Y2I7); details: Compound concentration 1000.0 nM
[33] = target: Serine/threonine-protein kinase PLK1 (Homo sapiens) (UniProt P53350); details: Compound concentration 1000.0 nM
[34] = target: Serine/threonine-protein kinase D1 (Homo sapiens) (UniProt Q15139); details: Compound concentration 1000.0 nM
[35] = target: Serine/threonine-protein kinase D2 (Homo sapiens) (UniProt Q9BZL6); details: Compound concentration 1000.0 nM
[36] = target: SNF-related serine/threonine-protein kinase (Homo sapiens) (UniProt Q9NRH2); details: Compound concentration 1000.0 nM
[37] = target: Serine/threonine-protein kinase 33 (Homo sapiens) (UniProt Q9BYT3); details: Compound concentration 1000.0 nM
[38] = target: Activated CDC42 kinase 1 (Homo sapiens) (UniProt Q07912); details: Compound concentration 1000.0 nM
[39] = target: Dual specificity protein kinase TTK (Homo sapiens) (UniProt P33981); details: Compound concentration 1000.0 nM
[40] = target: Tyrosine-protein kinase TXK (Homo sapiens) (UniProt P42681); details: Compound concentration 1000.0 nM
Chain of Tyrosine-protein kinase TXK (Homo sapiens) (P42681 whole entry): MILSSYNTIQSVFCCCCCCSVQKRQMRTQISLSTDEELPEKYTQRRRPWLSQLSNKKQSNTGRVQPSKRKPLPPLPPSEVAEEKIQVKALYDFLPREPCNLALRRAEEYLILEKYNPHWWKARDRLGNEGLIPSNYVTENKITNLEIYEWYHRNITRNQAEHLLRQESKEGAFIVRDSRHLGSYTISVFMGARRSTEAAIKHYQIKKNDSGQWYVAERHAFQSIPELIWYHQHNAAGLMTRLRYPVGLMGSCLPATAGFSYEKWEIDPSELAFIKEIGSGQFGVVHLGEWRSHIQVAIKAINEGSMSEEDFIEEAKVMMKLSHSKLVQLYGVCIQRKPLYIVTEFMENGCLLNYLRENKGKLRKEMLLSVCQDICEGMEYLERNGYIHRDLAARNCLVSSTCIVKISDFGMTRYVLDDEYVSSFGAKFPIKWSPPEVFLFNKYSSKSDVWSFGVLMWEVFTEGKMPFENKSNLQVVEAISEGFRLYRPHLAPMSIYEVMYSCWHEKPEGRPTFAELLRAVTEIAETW

[41] = target: Phosphatidylinositol 3-kinase catalytic subunit type 3 (Homo sapiens) (UniProt Q8NEB9); details: Compound concentration 1000.0 nM
[42] = target: Serine/threonine-protein kinase WNK1 (Homo sapiens) (UniProt Q9H4A3); details: Compound concentration 1000.0 nM
[43] = target: D(4) dopamine receptor (Homo sapiens) (UniProt P21917); details: Compound concentration 10.0 uM
[44] = target: Delta-type opioid receptor (Homo sapiens) (UniProt P41143); details: Compound concentration 10.0 uM
Chain of Delta-type opioid receptor (Homo sapiens) (P41143 whole entry): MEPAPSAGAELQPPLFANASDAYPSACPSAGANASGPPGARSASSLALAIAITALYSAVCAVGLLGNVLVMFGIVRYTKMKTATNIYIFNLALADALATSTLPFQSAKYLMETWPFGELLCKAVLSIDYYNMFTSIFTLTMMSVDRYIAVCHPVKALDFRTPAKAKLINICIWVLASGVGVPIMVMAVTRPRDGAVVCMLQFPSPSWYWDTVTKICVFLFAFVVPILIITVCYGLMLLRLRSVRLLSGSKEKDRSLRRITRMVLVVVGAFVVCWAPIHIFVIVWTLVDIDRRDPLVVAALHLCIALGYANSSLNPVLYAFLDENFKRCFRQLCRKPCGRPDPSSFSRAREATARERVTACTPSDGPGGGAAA

[45] = target: Muscarinic acetylcholine receptor M3 (Homo sapiens) (UniProt P20309); details: Compound concentration 10.0 uM

Chain of Tyrosine-protein kinase ABL1 (Homo sapiens), P00519 [E255K] (P00519 whole entry E255K): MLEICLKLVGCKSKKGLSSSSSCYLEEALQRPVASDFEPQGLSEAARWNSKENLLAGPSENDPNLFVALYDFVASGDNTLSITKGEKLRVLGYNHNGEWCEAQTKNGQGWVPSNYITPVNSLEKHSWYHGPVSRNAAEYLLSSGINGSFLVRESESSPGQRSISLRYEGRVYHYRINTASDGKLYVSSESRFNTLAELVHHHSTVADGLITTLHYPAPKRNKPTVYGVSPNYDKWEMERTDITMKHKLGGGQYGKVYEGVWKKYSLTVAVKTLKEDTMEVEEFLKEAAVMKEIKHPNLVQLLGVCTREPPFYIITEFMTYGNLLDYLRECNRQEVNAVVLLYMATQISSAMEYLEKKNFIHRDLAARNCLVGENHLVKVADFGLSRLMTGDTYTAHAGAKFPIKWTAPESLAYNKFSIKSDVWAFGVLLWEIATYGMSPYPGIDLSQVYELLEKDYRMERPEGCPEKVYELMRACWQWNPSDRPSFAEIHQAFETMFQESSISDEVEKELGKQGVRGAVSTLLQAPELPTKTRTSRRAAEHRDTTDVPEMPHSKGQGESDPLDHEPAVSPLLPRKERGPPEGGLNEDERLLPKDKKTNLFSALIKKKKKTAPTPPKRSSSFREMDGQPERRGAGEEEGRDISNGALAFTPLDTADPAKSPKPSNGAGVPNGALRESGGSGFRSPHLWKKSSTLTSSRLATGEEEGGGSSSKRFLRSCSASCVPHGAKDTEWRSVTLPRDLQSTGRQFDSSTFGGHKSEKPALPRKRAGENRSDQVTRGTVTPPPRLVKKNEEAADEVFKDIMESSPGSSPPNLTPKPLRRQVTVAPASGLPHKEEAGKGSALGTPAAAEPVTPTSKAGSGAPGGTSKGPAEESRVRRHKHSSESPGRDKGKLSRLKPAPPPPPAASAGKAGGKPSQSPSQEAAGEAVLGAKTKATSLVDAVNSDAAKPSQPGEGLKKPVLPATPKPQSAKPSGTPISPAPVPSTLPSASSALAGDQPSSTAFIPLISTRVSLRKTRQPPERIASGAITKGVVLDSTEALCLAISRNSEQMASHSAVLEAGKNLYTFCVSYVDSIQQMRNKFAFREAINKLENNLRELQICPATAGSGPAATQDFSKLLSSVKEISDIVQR

Q: Which residual activity [1] does the source give for `COc1ccc2c(O[C@@H]3C[C@H]4C(=O)N[C@]5(C(=O)O)CC5/C=C\CCCCC[C@H](NC(=O)OC5CCCC5)C(=O)N4C3)cc(-c3csc(NC(=O)C(C)C)n3)nc2c1C` (stereo not given in full) [BI 1230] here?
A: The residual activity was 80%.

Q: What about the residual activity [2] of the same compound?
A: Its residual activity is 97%.

Q: And the residual activity [3]?
A: Its residual activity is 100%.

Q: What about the residual activity [4] of the same compound?
A: The residual activity was 89%.

Q: And the residual activity [5]?
A: The residual activity was 91%.

Q: What about the residual activity [6] of the same compound?
A: The residual activity was 90%.

Q: What about the residual activity [7] of the same compound?
A: The residual activity was 77%.

Q: What about the residual activity [8] of the same compound?
A: The residual activity was 100%.

Q: And the residual activity [9]?
A: The residual activity was 89%.

Q: And the residual activity [10]?
A: The residual activity was 100%.

Q: And the residual activity [11]?
A: The residual activity was 92%.

Q: What about the residual activity [12] of the same compound?
A: Its residual activity is 62%.

Q: What about the residual activity [13] of the same compound?
A: The residual activity was 96%.

Q: And the residual activity [14]?
A: Its residual activity is 100%.

Q: And the residual activity [15]?
A: The residual activity was 89%.

Q: What about the residual activity [16] of the same compound?
A: Its residual activity is 80%.

Q: What about the residual activity [17] of the same compound?
A: Its residual activity is 95%.

Q: And the residual activity [18]?
A: The residual activity was 97%.

Q: What about the residual activity [19] of the same compound?
A: Its residual activity is 100%.

Q: And the residual activity [20]?
A: Its residual activity is 100%.

Q: What about the residual activity [21] of the same compound?
A: Its residual activity is 91%.

Q: What about the residual activity [22] of the same compound?
A: Its residual activity is 100%.

Q: What about the residual activity [23] of the same compound?
A: Its residual activity is 82%.

Q: What about the residual activity [24] of the same compound?
A: The residual activity was 62%.

Q: What about the residual activity [25] of the same compound?
A: Its residual activity is 100%.

Q: And the residual activity [26]?
A: Its residual activity is 98%.

Q: What about the residual activity [27] of the same compound?
A: Its residual activity is 100%.

Q: And the residual activity [28]?
A: Its residual activity is 100%.

Q: What about the residual activity [29] of the same compound?
A: Its residual activity is 100%.

Q: What about the residual activity [30] of the same compound?
A: Its residual activity is 99%.

Q: And the residual activity [31]?
A: Its residual activity is 88%.

Q: And the residual activity [32]?
A: Its residual activity is 100%.

Q: And the residual activity [33]?
A: The residual activity was 77%.

Q: What about the residual activity [34] of the same compound?
A: The residual activity was 89%.

Q: What about the residual activity [35] of the same compound?
A: Its residual activity is 95%.

Q: And the residual activity [36]?
A: Its residual activity is 80%.

Q: And the residual activity [37]?
A: The residual activity was 54%.

Q: And the residual activity [38]?
A: The residual activity was 100%.

Q: What about the residual activity [39] of the same compound?
A: The residual activity was 100%.

Q: And the residual activity [40]?
A: Its residual activity is 86%.

Q: What about the residual activity [41] of the same compound?
A: Its residual activity is 100%.

Q: And the residual activity [42]?
A: The residual activity was 100%.

Q: And the inhibition [43]?
A: Its inhibition is 24.6%.

Q: And the inhibition [44]?
A: The inhibition was 45.8%.

Q: And the inhibition [45]?
A: Its inhibition is 0.21%.

Q: Which results are given for `O=C(N[C@H]1CCCCC/C=C\C2C[C@@]2(C(=O)O)NC(=O)[C@@H]2C[C@@H](Oc3ccncc3)CN2C1=O)OC1CCCC1` (stereo not given in full) [BI 1675]?
A: residual activity [1]: 80%; residual activity [2]: 84%; residual activity [3]: 100%; residual activity [4]: 85%; residual activity [5]: 89%; residual activity [6]: 96%; residual activity [7]: 95%; residual activity [8]: 87%; residual activity [9]: 100%; residual activity [10]: 93%; residual activity [11]: 99%; residual activity [12]: 49%; residual activity [13]: 100%; residual activity [14]: 100%; residual activity [15]: 72%; residual activity [16]: 88%; residual activity [17]: 90%; residual activity [18]: 100%; residual activity [19]: 100%; residual activity [20]: 96%; residual activity [21]: 89%; residual activity [22]: 69%; residual activity [23]: 80%; residual activity [24]: 100%; residual activity [25]: 100%; residual activity [26]: 87%; residual activity [27]: 100%; residual activity [28]: 94%; residual activity [29]: 89%; residual activity [30]: 92%; residual activity [31]: 84%; residual activity [32]: 100%; residual activity [33]: 71%; residual activity [34]: 96%; residual activity [35]: 100%; residual activity [36]: 97%; residual activity [37]: 89%; residual activity [38]: 100%; residual activity [39]: 79%; residual activity [40]: 87%; residual activity [41]: 100%; residual activity [42]: 90%; inhibition [43]: 9.26%; inhibition [44]: -2.02%; inhibition [45]: -5.57%
